According to PubChem BioAssay AID256 (DTP/NCI, 2004):
Toxic doses and inconclusive results are not listed.

System: CD2F1 mice, L1210 leukemia ip, survival T/C
Test: NCI In Vivo Anticancer Drug Screen. Data for tumor model L1210 Leukemia (intraperitoneal) in CD2F1 (CDF1) mice
Settings: endpoint: mean survival time, higher = longer survival
Procedure, shortened: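 Mice carrying a transplanted tumor received test compound or vehicle alone. The value is the measurement in the treated group divided by that in the vehicle-treated control group.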

[1] = dose: 100.0 mg/kg/injection, schedule: Q01DX009 (ip), vehicle: saline
[2] = dose: 100.0 mg/kg/injection, schedule: Q01DX001 (ip), vehicle: saline
[3] = dose: 200.0 mg/kg/injection, schedule: Q01DX001 (ip), vehicle: saline
[4] = dose: 400.0 mg/kg/injection, schedule: Q01DX001 (ip), vehicle: saline
[5] = dose: 100.0 mg/kg/injection, schedule: Q04DX003 (ip), vehicle: saline
[6] = dose: 200.0 mg/kg/injection, schedule: Q04DX003 (ip), vehicle: saline
[7] = dose: 100.0 mg/kg/injection, schedule: Q04DX003 (ip), vehicle: saline with Tween-80
[8] = dose: 200.0 mg/kg/injection, schedule: Q04DX003 (ip), vehicle: saline with Tween-80
[9] = dose: 400.0 mg/kg/injection, schedule: Q04DX003 (ip), vehicle: saline with Tween-80
[10] = dose: 50.0 mg/kg/injection, schedule: Q04DX003 (ip), vehicle: saline with Tween-80

CN(Cc1ccccc1)C1CCC(C(=O)O)CC1 (configuration not stated)
T/C [1]: 107 % of control | T/C (dose: 200.0 mg/kg/injection, schedule: Q01DX009 (ip), vehicle: saline): 107 % of control | T/C (dose: 400.0 mg/kg/injection, schedule: Q01DX009 (ip), vehicle: saline): 100 % of control

O=C(O)C(=O)Cc1ccc2c(c1)OCO2
T/C [2]: 98 % of control | T/C [3]: 104 % of control | T/C [4]: 98 % of control

Cc1cc2nc(CN)[nH]c2cc1C
T/C [5]: 98 % of control | T/C [6]: 95 % of control

OCCN=Cc1ccccc1
T/C (dose: 25.0 mg/kg/injection, schedule: Q01DX009 (ip), vehicle: saline): 95 % of control | T/C (dose: 50.0 mg/kg/injection, schedule: Q01DX009 (ip), vehicle: saline): 92 % of control | T/C [1]: 97 % of control | T/C [7]: 106 % of control

C[N+](C)(C)/N=C\c1cccc2ccccc12
T/C (dose: 6.25 mg/kg/injection, schedule: Q01DX009 (ip), vehicle: saline with Tween-80): 111 % of control | T/C (dose: 12.5 mg/kg/injection, schedule: Q01DX009 (ip), vehicle: saline with Tween-80): 107 % of control | T/C (dose: 25.0 mg/kg/injection, schedule: Q01DX009 (ip), vehicle: saline with Tween-80): 104 % of control

NC(=Nc1ccccc1)Nc1ccccc1
T/C (dose: 6.25 mg/kg/injection, schedule: Q04DX002 (ip), vehicle: Klucel (hydroxypropylcellulose) (HPC)): 96 % of control | T/C (dose: 12.5 mg/kg/injection, schedule: Q04DX002 (ip), vehicle: Klucel (hydroxypropylcellulose) (HPC)): 86 % of control | T/C (dose: 25.0 mg/kg/injection, schedule: Q04DX002 (ip), vehicle: Klucel (hydroxypropylcellulose) (HPC)): 92 % of control | T/C (dose: 50.0 mg/kg/injection, schedule: Q01DX009 (ip), vehicle: saline with Tween-80): 101 % of control

CN1NC2(O)C(=O)N(C3CCCCC3)CC2C1c1ccccc1 (configuration not stated)
T/C [7]: 86 % of control | T/C [8]: 93 % of control | T/C [9]: 101 % of control

COCCOC(C)C(=O)C(O)S(=O)(=O)O (configuration not stated)
T/C (dose: 50.0 mg/kg/injection, schedule: Q01DX001 (ip), vehicle: saline): 98 % of control | T/C [2]: 102 % of control | T/C [5]: 103 % of control | T/C [3]: 100 % of control | T/C [6]: 103 % of control | T/C [4]: 100 % of control | T/C (dose: 400.0 mg/kg/injection, schedule: Q04DX003 (ip), vehicle: saline): 103 % of control

Cc1nc(N)[nH]c(=O)c1CCS
T/C [2]: 97 % of control | T/C [3]: 100 % of control

CCOC(=O)N/N=C/c1cc(Cl)ccc1O
T/C [10]: 98 % of control | T/C [7]: 93 % of control | T/C [8]: 91 % of control

CCCn1cnc2c(=S)nc[nH]c21
T/C (dose: 150.0 mg/kg/injection, schedule: Q01DX Z (ip), vehicle: carboxymethylcellulose (CMC)): 119 % of control | T/C (dose: 150.0 mg/kg/injection, schedule: Q04DX003 (ip), vehicle: saline with Tween-80): 150 % of control | T/C (dose: 200.0 mg/kg/injection, schedule: Q01DX Z (ip), vehicle: carboxymethylcellulose (CMC)): 95 % of control | T/C (dose: 300.0 mg/kg/injection, schedule: Q04DX003 (ip), vehicle: saline with Tween-80): 161 % of control | T/C (dose: 600.0 mg/kg/injection, schedule: Q04DX003 (ip), vehicle: saline with Tween-80): 111 % of control

CC(=O)N(C(C)=O)c1ncc2ccccc2c1-c1ccc(N)cc1
T/C (dose: 25.0 mg/kg/injection, schedule: Q04DX003 (ip), vehicle: saline with Tween-80): 92 % of control | T/C [10]: 89 % of control | T/C [7]: 94 % of control

Clc1ccc(C2(c3ccncc3)OCCO2)cc1
T/C [5]: 101 % of control | T/C [6]: 101 % of control

Oc1c(Br)cc(Br)cc1C=Nc1ccc(Br)cc1
T/C [7]: 110 % of control | T/C [8]: 97 % of control | T/C [9]: 95 % of control
